Data taken from ChEMBL document CHEMBL4184110 (Bioorg Med Chem Lett, 2018).

Assays:
[1] = target: T1, Vitamin D3 receptor (Homo sapiens, UniProt P11473); assay: Antagonist activity at VP16-fused VDR-LBD (unknown origin) expressed in HEK293T cells assessed as inhibition of ligand-induced GAL4-fused SRC1 coactivator recruitment by two-hybrid luciferase reporter gene assay; type: cell-based
T1 sequence (P11473 whole entry): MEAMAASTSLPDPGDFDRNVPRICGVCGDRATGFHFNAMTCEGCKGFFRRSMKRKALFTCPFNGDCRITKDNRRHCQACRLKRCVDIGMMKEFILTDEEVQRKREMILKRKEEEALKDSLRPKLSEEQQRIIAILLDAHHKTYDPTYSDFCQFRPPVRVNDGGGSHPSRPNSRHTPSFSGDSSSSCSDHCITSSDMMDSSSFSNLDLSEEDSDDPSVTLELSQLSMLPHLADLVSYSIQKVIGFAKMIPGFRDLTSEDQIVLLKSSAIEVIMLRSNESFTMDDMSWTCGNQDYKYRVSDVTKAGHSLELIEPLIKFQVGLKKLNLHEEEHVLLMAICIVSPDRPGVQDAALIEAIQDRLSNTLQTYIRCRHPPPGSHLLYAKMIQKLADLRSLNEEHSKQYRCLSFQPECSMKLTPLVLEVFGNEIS

[2] = target: T2, Luciferin 4-monooxygenase (Photuris pensylvanica, UniProt Q27757); assay: Inhibition of Photuris pennsylvanica luciferase after 45 mins by CellTiter-Glo based luminescence assay; conditions: 0.75 h
T2 sequence (Q27757 whole entry): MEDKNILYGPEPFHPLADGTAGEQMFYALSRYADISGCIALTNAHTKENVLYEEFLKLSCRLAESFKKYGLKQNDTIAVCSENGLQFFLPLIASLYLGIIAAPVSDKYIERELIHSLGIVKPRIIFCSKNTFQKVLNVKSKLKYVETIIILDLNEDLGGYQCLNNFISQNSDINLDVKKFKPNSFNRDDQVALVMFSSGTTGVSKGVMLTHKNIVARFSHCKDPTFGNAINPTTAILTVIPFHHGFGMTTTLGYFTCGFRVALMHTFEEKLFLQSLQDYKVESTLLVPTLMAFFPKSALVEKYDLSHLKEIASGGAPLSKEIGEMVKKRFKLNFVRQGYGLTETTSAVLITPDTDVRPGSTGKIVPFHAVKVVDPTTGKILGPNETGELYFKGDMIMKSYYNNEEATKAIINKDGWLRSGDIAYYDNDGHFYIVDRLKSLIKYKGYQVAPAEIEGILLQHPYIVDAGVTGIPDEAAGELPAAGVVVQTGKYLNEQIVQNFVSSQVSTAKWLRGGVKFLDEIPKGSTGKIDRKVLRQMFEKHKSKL

| SMILES | IC50 [1] [µM] | inhibition (INH) [2] |
| --- | --- | --- |
| COC(=O)c1ccc(OCc2oc(-c3cccc(OC)c3)nc2C)cc1 | 8.89 | Not Active |
| COC(=O)c1cccc(OCc2oc(-c3ccccc3OC)nc2C)c1 | 7.33 | – |
| COC(=O)Cc1ccc(OCc2oc(-c3ccccc3OC)nc2C)cc1 | 11.1 | – |
| COC(=O)Cc1ccc(OCc2oc(-c3cccc(OC)c3)nc2C)cc1 | 13.9 | Not Active |
